From patent US11746100B2 (GLOBAL BLOOD THERAPEUTICS, INC., priority 2020, dated 2023)

Target: T1, human ferroportin (Homo sapiens, UniProt Q9NP59)
T1 construct: luciferase reporter (read with the Nano-Glo Luciferase Assay System); expressed in transfected cells; host or cells: CHO cells, stably transfected, expression induced with doxycycline
T1 sequence (Q9NP59 1-571): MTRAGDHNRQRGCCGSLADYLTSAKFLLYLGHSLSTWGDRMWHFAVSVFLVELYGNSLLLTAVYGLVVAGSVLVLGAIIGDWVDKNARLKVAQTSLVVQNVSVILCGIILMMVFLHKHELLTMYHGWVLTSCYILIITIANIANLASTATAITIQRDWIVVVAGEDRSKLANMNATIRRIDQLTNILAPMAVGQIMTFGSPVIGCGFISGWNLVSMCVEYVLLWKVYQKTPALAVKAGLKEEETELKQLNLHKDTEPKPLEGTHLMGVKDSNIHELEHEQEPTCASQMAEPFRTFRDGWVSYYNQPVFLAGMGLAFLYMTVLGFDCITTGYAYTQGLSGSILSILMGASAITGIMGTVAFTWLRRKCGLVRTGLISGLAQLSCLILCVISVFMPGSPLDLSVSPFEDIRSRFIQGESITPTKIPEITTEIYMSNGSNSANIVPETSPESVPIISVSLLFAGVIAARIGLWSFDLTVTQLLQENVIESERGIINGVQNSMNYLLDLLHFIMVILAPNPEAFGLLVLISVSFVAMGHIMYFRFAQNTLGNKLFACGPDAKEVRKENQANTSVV
Assay: Biological in-vitro ferroportin internalization assay (luciferase reporter)
Format: cell-based
Conditions: average pEC50; stably-transfected CHO cell line expressing human ferroportin tagged to a luciferase reporter; 6 h incubation with test compound
Experimental: The protocol for this assay is generally as described in WO2018/128828, incorporated herein by reference in its entirety. Functional internalization of ferroportin protein was measured using a stably-transfected CHO cell line expressing the human ferroportin tagged to a luciferase reporter. Cells were plated for 24 h in the presence of ferric ammonium citrate (FAC). Ferroportin protein expression was induced with doxycycline for 24 h. The next day, the compounds were added. Test compounds were dissolved in DMSO. Cells were incubated with the test compounds for 6 h, and subsequently luciferase activity was measured using the Nano-Glo Luciferase Assay System and Glomax (Promega, Madison, Wis.). The average pEC50 was determined for the test compounds.

pEC50	Compound
6.7	CC1(C)CC[C@H](Nc2nc(-c3ccccn3)nc3c2CCC3)C(=O)N1 [Compound 56, (3S)-6,6-dimethyl-3-{[2-(pyridin-2-yl)-5H,6H,7H-cyclopenta[d]pyrimidin-4-yl]amino}piperidin-2-one]
7.5	CN(CC(=O)NC(C)(C)C)c1nc(-c2cc(C3CC3)ccn2)nc2c1CCC2 [Compound 57, N-tert-butyl-2-{[2-(4-cyclopropylpyridin-2-yl)-5H,6H,7H-cyclopenta[d]pyrimidin-4-yl](methyl)amino}acetamide]
6.7	CN(CC(=O)NC(C)(C)C)c1nc(-c2cc(F)ccn2)nc2c1CCC2 [Compound 58, N-tert-butyl-2-{[2-(4-fluoropyridin-2-yl)-5H,6H,7H-cyclopenta[d]pyrimidin-4-yl](methyl)amino}acetamide]
6.8	Cc1cccc(-c2nc3c(c(N(C)CC(=O)NC(C)(C)C)n2)CCC3)n1 [Compound 59, -tert-butyl-2-{methyl[2-(6-methylpyridin-2-yl)-5H,6H,7H-cyclopenta[d]pyrimidin-4-yl]amino}acetamide]
7.6	Cc1cnc(-c2nc3c(c(N(C)CC(=O)NC(C)(C)C)n2)CCC3)cc1C [Compound 60, N-tert-butyl-2-{[2-(4,5-dimethylpyridin-2-yl)-5H,6H,7H-cyclopenta[d]pyrimidin-4-yl](methyl)amino}acetamide]
7.1	CN(CC(=O)NC(C)(C)CO)c1nc(-c2ccccn2)nc2c1CCC2 [Compound 61, N-(1-hydroxy-2-methylpropan-2-yl)-2-{methyl[2-(pyridin-2-yl)-5H,6H,7H-cyclopenta[d]pyrimidin-4-yl]amino}acetamide]
7.6	Cc1ccnc(-c2nc3c(c(N(C)CC(=O)NC(C)(C)CO)n2)CCC3)c1 [Compound 62, N-(1-hydroxy-2-methylpropan-2-yl)-2-{methyl[2-(4-methylpyridin-2-yl)-5H,6H,7H-cyclopenta[d]pyrimidin-4-yl]amino}acetamide]
7.2	CN(CC(=O)NC(C)(C)CCO)c1nc(-c2ccccn2)nc2c1CCC2 [Compound 63, N-(4-hydroxy-2-methylbutan-2-yl)-2-{methyl[2-(pyridin-2-yl)-5H,6H,7H-cyclopenta[d]pyrimidin-4-yl]amino}acetamide]
7.8	Cc1ccnc(-c2nc3c(c(N(C)CC(=O)NC4CCCC4)n2)CCC3)c1 [Compound 64, N-cyclopentyl-2-{methyl[2-(4-methylpyridin-2-yl)-5H,6H,7H-cyclopenta[d]pyrimidin-4-yl]amino}acetamide]
7.6	Cc1ccnc(-c2nc3c(c(N(C)CC(=O)NC4(C)CCOC4)n2)CCC3)c1 (stereo not drawn) [Compound 65, 2-{methyl[2-(4-methylpyridin-2-yl)-5H,6H,7H-cyclopenta[d]pyrimidin-4-yl]amino}-N-(3-methyloxolan-3-yl)acetamide]
7.7	Cc1ccnc(-c2nc3c(c(N(C)CC(=O)Nc4cccc(F)c4)n2)CCC3)c1 [Compound 66, N-(3-fluorophenyl)-2-{methyl[2-(4-methylpyridin-2-yl)-5H,6H,7H-cyclopenta[d]pyrimidin-4-yl]amino}acetamide]
6.6	CN(CC(=O)NC(C)(C)C)c1cc(-c2ncccn2)nc2c1CCC2 [Compound 67, N-tert-butyl-2-{methyl[2-(pyrimidin-2-yl)-5H,6H,7H-cyclopenta[b]pyridin-4-yl]amino}acetamide]
7.2	Cc1ccnc(-c2cc(N(C)CC(=O)NC(C)(C)C)c3c(n2)CCC3)c1 [Compound 68, N-tert-butyl-2-{methyl[2-(4-methylpyridin-2-yl)-5H,6H,7H-cyclopenta[b]pyridin-4-yl]amino}acetamide]
7	Cc1cnc(CCNC(=O)CN(C)c2nc(-c3ccccn3)nc3c2CCC3)n1C1CCC1 [Compound 69, N-[2-(1-cyclobutyl-5-methyl-1H-imidazol-2-yl)ethyl]-2-{methyl[2-(pyridin-2-yl)-5H,6H,7H-cyclopenta[d]pyrimidin-4-yl]amino}acetamide]
7.4	CN(CC(=O)Nc1nnc(N2CCCCCC2)s1)c1nc(-c2ccccn2)nc2c1CCC2 [Compound 70, N-[5-(azepan-1-yl)-1,3,4-thiadiazol-2-yl]-2-{methyl[2-(pyridin-2-yl)-5H,6H,7H-cyclopenta[d]pyrimidin-4-yl]amino}acetamide]
5.5	c1ccc(-c2nc3c(c(N4CC5CC4CO5)n2)CCC3)nc1 (stereo not drawn) [Compound 72, 5-[2-(pyridin-2-yl)-5H,6H,7H-cyclopenta[d]pyrimidin-4-yl]-2-oxa-5-azabicyclo[2.2.1]heptane]
6.8	CN(Cc1ccccn1)c1nc(-c2ccccn2)nc2c1CCC2 [Compound 73, N-methyl-2-(pyridin-2-yl)-N-[(pyridin-2-yl)methyl]-5H,6H,7H-cyclopenta[d]pyrimidin-4-amine]

pEC50	Compound
7.5	COc1ccc(NC(=O)CN(C)c2nc(-c3ccccn3)nc3c2CCC3)cc1 [Compound 75, N-(4-methoxyphenyl)-2-{methyl[2-(pyridin-2-yl)-5H,6H,7H-cyclopenta[d]pyrimidin-4-yl]amino}acetamide]
6	c1ccc(-c2nc3c(c(N4CCCc5ccccc54)n2)CCC3)nc1 [Compound 76, 1-[2-(pyridin-2-yl)-5H,6H,7H-cyclopenta[d]pyrimidin-4-yl]-1,2,3,4-tetrahydroquinoline]
7	CN(CC(=O)Nc1ccccc1)c1nc(-c2ccccn2)nc2c1CCC2 [Compound 77, 2-{methyl[2-(pyridin-2-yl)-5H,6H,7H-cyclopenta[d]pyrimidin-4-yl]amino}-N-phenylacetamide]
7.4	CN(CC(=O)NC1CCCCC1)c1nc(-c2ccccn2)nc2c1CCC2 [Compound 78, N-cyclohexyl-2-{methyl[2-(pyridin-2-yl)-5H,6H,7H-cyclopenta[d]pyrimidin-4-yl]amino}acetamide]
6.5	CN(CC(=O)NC1CCOCC1)c1nc(-c2ccccn2)nc2c1CCC2 [Compound 79, 2-{methyl[2-(pyridin-2-yl)-5H,6H,7H-cyclopenta[d]pyrimidin-4-yl]amino}-N-(oxan-4-yl)acetamide]
6.8	CCN(Cc1ncccn1)c1nc(-c2ccccn2)nc2c1CCC2 [Compound 80, N-ethyl-2-(pyridin-2-yl)-N-[(pyrimidin-2-yl)methyl]-5H,6H,7H-cyclopenta[d]pyrimidin-4-amine]
6.8	CN(Cc1ncccn1)c1nc(-c2ccccn2)nc2c1CCC2 [Compound 81, N-methyl-2-(pyridin-2-yl)-N-[(pyrimidin-2-yl)methyl]-5H,6H,7H-cyclopenta[d]pyrimidin-4-amine]
6.8	CN(Cc1nc2ccccc2o1)c1nc(-c2ccccn2)nc2c1CCC2 [Compound 82, N-[(1,3-benzoxazol-2-yl)methyl]-N-methyl-2-(pyridin-2-yl)-5H,6H,7H-cyclopenta[d]pyrimidin-4-amine]
6.9	c1ccc(-c2nc3c(c(N4CCc5ccccc5CC4)n2)CCC3)nc1 [Compound 83, 3-[2-(pyridin-2-yl)-5H,6H,7H-cyclopenta[d]pyrimidin-4-yl]-2,3,4,5-tetrahydro-1H-3-benzazepine]
6.6	COCCN(C)c1nc(-c2ccccn2)nc2c1CCC2 [Compound 84, N-(2-methoxyethyl)-N-methyl-2-(pyridin-2-yl)-5H,6H,7H-cyclopenta[d]pyrimidin-4-amine]
5.5	CN1CCCN(c2nc(-c3ccccn3)nc3c2CCC3)CC1 [Compound 85, 1-methyl-4-[2-(pyridin-2-yl)-5H,6H,7H-cyclopenta[d]pyrimidin-4-yl]-1,4-diazepane]
6.8	CN(CC(=O)N1CCOCC1)c1nc(-c2ccccn2)nc2c1CCC2 [Compound 86, 2-{methyl[2-(pyridin-2-yl)-5H,6H,7H-cyclopenta[d]pyrimidin-4-yl]amino}-1-(morpholin-4-yl)ethan-1-one]
6.6	CN(CCOc1ccccc1)c1nc(-c2ccccn2)nc2c1CCC2 [Compound 87, N-methyl-N-(2-phenoxyethyl)-2-(pyridin-2-yl)-5H,6H,7H-cyclopenta[d]pyrimidin-4-amine]
7.1	CN(CC(=O)N1CCCCC1)c1nc(-c2ccccn2)nc2c1CCC2 [Compound 88, 2-{methyl[2-(pyridin-2-yl)-5H,6H,7H-cyclopenta[d]pyrimidin-4-yl]amino}-1-(piperidin-1-yl)ethan-1-one]
7.3	CN(CC(=O)NC(C)(C)C)c1nc(-c2ccccn2)nc2c1CCC2 [Compound 89, N-tert-butyl-2-{methyl[2-(pyridin-2-yl)-5H,6H,7H-cyclopenta[d]pyrimidin-4-yl]amino}acetamide]
7.4	CC(C(=O)NC(C)(C)C)N(C)c1nc(-c2ccccn2)nc2c1CCC2 (stereo not drawn) [Compound 90, N-tert-butyl-2-{methyl[2-(pyridin-2-yl)-5H,6H,7H-cyclopenta[d]pyrimidin-4-yl]amino}propanamide]
